# Literature values, collected in patent US20080102081A1, “Preparations and applications for treatment of high cholesterol levels” (priority 2006, published 2008).
# What was measured:
# [1] = clinical trials, patients at lower dosages
# [2] = denominator of prescription volume
Structure (SMILES),elevation of hepatic enzyme activity [1],fatal rhabdomyolysis rate [2]
CC(C)c1c(C(=O)Nc2ccccc2)c(-c2ccccc2)c(-c2ccc(F)cc2)n1CC[C@@H](O)C[C@@H](O)CC(=O)O [Atorvastatin],0.7%,–
COCc1c(C(C)C)nc(C(C)C)c(/C=C/[C@@H](O)C[C@@H](O)CC(=O)O)c1-c1ccc(F)cc1 [Cerivastatin],–,3.16 fatal cases/million prescriptions
